The values that follow come from PubChem BioAssay (NCI).

Test systems include NCI-H460 lung; SW-620 colon; UO-31 renal; UACC-62 melanoma; KM12 colon; OVCAR-5 ovarian; M14 melanoma; ACHN renal; MOLT-4 leukemia; SF-295 CNS.
Holding throughout (assay): inhibition of tumour cell growth, NCI panel, 48 h

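Briefly, cells in 96-well plates were exposed to five compound concentrations for 48 h, and endpoints were estimated by linear interpolation. TGI denotes the concentration required for complete inhibition of growth.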

Take `COc1ccc(-n2c3c(c4cc(O)ccc42)C(=O)c2ccccc2C3=O)cc1`: the TGI is over 100 µM in the assay on NCI-H460 lung; over 100 µM in the assay on SW-620 colon; over 100 µM with UO-31 renal; 25.6 µM with UACC-62 melanoma; over 100 µM in the assay with KM12 colon; over 100 µM with OVCAR-5 ovarian. Besides, the TGI is over 100 µM in the assay with M14 melanoma, 56.7 µM in the assay on ACHN renal, over 100 µM in the assay on MOLT-4 leukemia and 17.6 µM with SF-295 CNS.
With `CCOC(=O)C1=C(C)N(C)C(=S)NC1c1cccc(O)c1` (stereo not given), the TGI with NCI-H460 lung, in the assay on SW-620 colon, with UO-31 renal, in the assay with UACC-62 melanoma, with KM12 colon and with OVCAR-5 ovarian was over 100 µM throughout. The TGI is 83.1 µM in the assay on M14 melanoma, over 100 µM in the assay on ACHN renal, over 100 µM in the assay on MOLT-4 leukemia and over 100 µM in the assay on SF-295 CNS.
For the compound `CN(C)[C@@H]1C(=O)C(C(=O)NCNCCCC(=O)O)=C(O)[C@@]2(O)C(=O)C3=C(O)c4c(O)cccc4[C@@](C)(O)[C@H]3C[C@@H]12`, the TGI in the assay with NCI-H460 lung, in the assay with SW-620 colon, in the assay with UO-31 renal, in the assay with UACC-62 melanoma, with KM12 colon and in the assay with OVCAR-5 ovarian was over 100 µM throughout. The TGI in the assay on M14 melanoma, in the assay with ACHN renal, with MOLT-4 leukemia and in the assay on SF-295 CNS was over 100 µM in each case.
